Key:
[1] = target: μ receptors (Homo sapiens, UniProt P35372); assay: Opiate receptor radioligand binding, competition with diprenorphine, naltrexone control; details: compared to naltrexone control; test concentration not given
Description: Opiate Receptor Binding of (S)-7,8-saturated-4,5α-epoxy-morphinaniums. Radioligand binding assays may be conducted to determine the binding specificity of an (S)-7,8-saturated-4,5-epoxy-morphinanium for μ-, κ-, and δ-opiate receptors using methods adapted from scientific literature (Simonin, F et al 1994, Mol. Pharmacol. 46:1015-1021; Maguire, P. et al 1992, Eur. J. Pharmacol. 213:219-225; Simonin, F. et al PNAS USA 92(15):1431-1437; Wang, J B 1994, FEBS Lett 338:217-222). For example, a membrane may be associated with human opioid receptor material. Diprenorphine which has an affinity for all […] opioid receptors, can be used as a competitive challenge to the test compound. Membranes can then be separated, and the binding of the test compounds to the receptor material can be determined by scintillation counting. A control, such as naltrexone, can be used to determine relative binding affinity.

[2] = target: T1, μ-opioid receptors in the guinea pig ileum (Cavia porcellus, UniProt A0ACM8Q262); assay: Field-stimulated guinea pig ileum, evaluation of agonist activity; details: for activation at 100 µM: 1.0E-04 M; for activation at 10 µM: 1.0E-05 M; for activation at 0.1 µM: 1.0E-07 M; for activation at 0.01 µM: 1.0E-08 M; for activation at 30 µM: 3.0E-05 M; for activation at 3 µM: 3.0E-06 M; for activation at 0.3 µM: 3.0E-07 M; for activation at 0.03 µM: 3.0E-08 M; for Response to compound + Naloxone, percent of the control response to DAMGO: compound 1.0E-04 M + Naloxone 1.0E-07 M; for activation at 1 µM: 1.0E-06 M
Description: (§1) In Vitro Pharmacology of (S)-7,8-saturated-4,5α-epoxy-morphinaniums on μ receptor. Mμ-receptor agonist/antagonist activity may be adjudged by use of field-stimulated guinea pig ileum by methods known in the art. For example, segments of guinea pig terminal ileum may be suspended in 20-ml organ baths filled with an oxygenated (95% O2 and 5% CO2) and pre-warmed (37° C.) physiological salt solution of the following composition (in mM): NaCl 118.0, KCl 4.7, MgSO4 1.2, CaCl2 2.5, KH2PO4 1.2, NaHCO3 25.0 and glucose 11.0 (pH 7.4). Additional experimental conditions that may be followed are described in Hutchinson et al. (1975) Brit. J. Pharmacol., 55:541-546.
(§2) Indomethacin (1 μM), nor-binaltorphimine (0.01 μM), methysergide (1 μM), ondansetron (10 μM) and GR113808 (0.1 μM) may be also present throughout an experiment to prevent prostanoid release and to block the k-opioid, 5-HT2, 5-HT3 and 5-HT4 receptors, respectively. The tissues in such tests are typically connected to force transducers for isometric tension recordings. The tissue may be stretched to a resting tension, for example, of 1 g then allowed to equilibrate, for example, about 60 min during which time they may be washed repeatedly and the tension readjusted. Electrical stimulation with pulses of minimal intensity to trigger maximal contractions and a short duration, for example, 1 ms duration, delivered by a constant current stimulator at a frequency such a 0.1 Hz.
Exemplar Test for Agonist Activity. The tissues may be exposed to a submaximal concentration of the reference agonist DAMGO (0.1 μM) to verify responsiveness and to obtain a control response. Following extensive washings and recovery of the control twitch contractions, the tissues may be exposed to increasing concentrations of the (S)-7,8-saturated-4,5-epoxy-morphinanium or the same agonist. The different concentrations may be added cumulatively and each left in contact with the tissues until a stable response is obtained or for a maximum of 15 min.

[3] = target: T1, μ-opioid receptors in the guinea pig ileum; assay: Field-stimulated guinea pig ileum, evaluation of antagonist activity against DAMGO; details: for remaining activity at 100 µM / remaining activity at 10 µM / remaining activity at 1 µM / remaining activity at 0.1 µM / remaining activity at 0.01 µM / remaining activity at 30 µM / remaining activity at 3 µM / remaining activity at 0.3 µM / remaining activity at 0.03 µM: guinea pig, mean, n=2, read-out: Response to DAMGO (1.0E-07 M) in the presence of the compound, percent of the control response to DAMGO; for remaining activity at 100 µM: compound 1.0E-04 M; for remaining activity at 10 µM: compound 1.0E-05 M; for remaining activity at 1 µM: compound 1.0E-06 M; for remaining activity at 0.1 µM: compound 1.0E-07 M; for remaining activity at 0.01 µM: compound 1.0E-08 M; for remaining activity at 30 µM: compound 3.0E-05 M; for remaining activity at 3 µM: compound 3.0E-06 M; for remaining activity at 0.3 µM: compound 3.0E-07 M; for remaining activity at 0.03 µM: compound 3.0E-08 M; for Antagonist activity IC50 value: inhibition of the response to DAMGO, guinea pig ileum
Description: as §1, §2
Exemplary Test for Antagonist Activity. The tissues may be exposed to a submaximal concentration of the reference agonist DAMGO (0.1 μM) to obtain a control response. […] Each concentration may be left in contact with the tissues until a stable response is obtained or for a maximum time, such as 15 min. The maximum change in the amplitude of the electrically-evoked twitch contractions induced by each compound concentration may be measured. […] The EC50 value (concentration producing a half-maximum response) or IC50 value (concentration causing a half-maximum inhibition of the response to DAMGO) may be determined by linear regression analysis of the concentration-response curves. Inhibition of the DAMGO-induced response by the (S)-7,8-saturated-4,5-epoxy-morphinanium may indicate an antagonist activity at the μ receptors.

[4] = mean, n=2, read-out: Response to compound (decrease in twitch contraction amplitude), percent of the control response to DAMGO

Chain of μ receptors (P35372 whole entry): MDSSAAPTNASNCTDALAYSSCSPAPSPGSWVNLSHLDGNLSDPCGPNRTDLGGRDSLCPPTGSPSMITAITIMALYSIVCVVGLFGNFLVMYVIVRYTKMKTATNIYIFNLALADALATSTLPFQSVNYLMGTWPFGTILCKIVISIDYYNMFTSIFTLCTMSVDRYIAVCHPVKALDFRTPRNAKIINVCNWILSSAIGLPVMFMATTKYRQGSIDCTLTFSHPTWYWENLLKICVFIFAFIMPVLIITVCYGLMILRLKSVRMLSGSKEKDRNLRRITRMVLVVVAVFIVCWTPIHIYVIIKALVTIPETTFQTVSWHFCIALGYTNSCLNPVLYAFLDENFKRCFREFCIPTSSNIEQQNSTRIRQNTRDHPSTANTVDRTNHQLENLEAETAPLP
T1 sequence (A0ACM8Q262 1-400): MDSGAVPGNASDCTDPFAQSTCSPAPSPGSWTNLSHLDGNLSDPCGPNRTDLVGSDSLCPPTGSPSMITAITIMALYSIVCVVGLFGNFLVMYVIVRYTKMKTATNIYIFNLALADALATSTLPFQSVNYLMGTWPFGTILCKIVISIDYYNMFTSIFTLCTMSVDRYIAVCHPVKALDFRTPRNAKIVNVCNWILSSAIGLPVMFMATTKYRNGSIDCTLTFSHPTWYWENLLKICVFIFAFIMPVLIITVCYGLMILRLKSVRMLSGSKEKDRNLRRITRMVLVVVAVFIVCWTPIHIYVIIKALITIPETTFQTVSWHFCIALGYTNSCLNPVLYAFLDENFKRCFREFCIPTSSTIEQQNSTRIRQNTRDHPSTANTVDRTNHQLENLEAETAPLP

Compound | inhibition of control specific binding at the μ receptor [1] | activation at 100 µM [2, 4] | activation at 10 µM [2, 4] | activation at 0.1 µM [2, 4] | activation at 0.01 µM [2, 4] | activation at 30 µM [2, 4] | activation at 3 µM [2, 4] | activation at 0.3 µM [2, 4] | activation at 0.03 µM [2, 4] | Response to compound + Naloxone, percent of the control response to DAMGO ([2]; mean, n=2) | remaining activity at 100 µM [3] | remaining activity at 10 µM [3] | remaining activity at 1 µM [3] | remaining activity at 0.1 µM [3] | remaining activity at 0.01 µM [3] | remaining activity at 30 µM [3] | remaining activity at 3 µM [3] | remaining activity at 0.3 µM [3] | remaining activity at 0.03 µM [3] | Antagonist activity IC50 value [3] | other results
CC(C)=CC[N+]1(C)CC[C@]23c4c5ccc(O)c4O[C@H]2C(=O)CC[C@@]3(O)[C@H]1C5.[I-] (stereo partly drawn) [(S)-17-(3,3-dimethylallyl)-4,5α-epoxy-3,14-di-hydroxy-17-methyl-6-oxomorphinanium iodide] | 65% |  |  |  |  |  |  |  |  |  |  |  |  |  |  |  |  |  |  |  | 
C=CC[N+]1(CC2CC2)CC[C@]23c4c5ccc(O)c4O[C@H]2C(=O)CC[C@@]3(O)[C@H]1C5 (stereo partly drawn) [(S)-17-Allyl-17-cyclopropylmethyl-4,5α-epoxy-3,14-di-hydroxy-6-oxomorphinanium Iodide] | 68% |  |  |  |  |  |  |  |  |  |  |  |  |  |  |  |  |  |  |  | 
CC(C)=CC[N+]1(C)CC[C@]23c4c5ccc(O)c4O[C@H]2C(=O)CC[C@@]3(O)[C@H]1C5.[I-] (stereo partly drawn) [(S)-DMAM, (S)-17-(3,3-dimethylallyl)-4,5α-epoxy-3,14-di-hydroxy-17-methyl-6-oxomorphinanium iodide] |  | 101% | 93% | 8% | 0% | 99% | 77% | 19% | 0% | 77% | 113% | 110% | 101% | 100% | 100% | 113% | 105% | 100% | 100% | No antagonist activity | EC50 ([2]; read-out: Agonist activity EC50 value, concentration producing a half-maximum response, guinea pig ileum): 1.3 µM
C[N+]1(CC#Cc2ccccc2)CC[C@]23c4c5ccc(O)c4O[C@H]2C(=O)CC[C@@]3(O)[C@H]1C5 (stereo partly drawn) [(S)-PM] | 80% | 89% | 53% | 6% | 0% | 71% | 38% | 12% | 0% | 30% | 110% | 100% | 100% | 100% | 100% | 100% | 100% | 100% | 100% | No antagonist activity | activation at 1 µM [2, 4]: 25%
C[C@@H](NC(=O)[C@@H](N)Cc1ccc(O)cc1)C(=O)NCC(=O)N(C)[C@@H](Cc1ccccc1)C(=O)NCCO [DAMGO, reference compound] |  |  |  | 96% | 57% |  |  |  |  |  |  |  |  |  |  |  |  |  |  |  | activation at 1 µM [2, 4]: 103%; activation at 0.001 µM ([2]; 1.0E-09 M, mean, n=2, read-out: Response to compound (decrease in twitch contraction amplitude), percent of the control response to DAMGO): 9%; Response to DAMGO + Naloxone, percent of the control response to DAMGO ([2]; highest DAMGO concentration + Naloxone 1.0E-07 M, mean, n=2): 4%

From US20080207669A1, “(S)-N-Stereoisomers of 7,8-Saturated-4,5-Epoxy-Morphinanium Analogs” (Progenics Pharmaceuticals, Inc., priority 2006, published 2008)
